Source: US8992977B2, “Multi-day delivery of biologically active substances” (Samos Pharmaceuticals, LLC, priority 2007, dated 2015)
Read-outs that look alike come from different tables or passages of the source.

What was measured:
[1] = cited from earlier work
[2] = cited from earlier work; remark: listed apart in the source
[3] = cited from earlier work; remark: listed apart in the source
[4] = Hydrolysis of ethinyl estradiol (EE) from conjugate of Example 16; format: physicochemical; conditions: for Ethinyl Estradiol Released (%): 9:4 ethanol/0.05 M phosphate buffer pH 7.4, 37° C.
Procedure: Estradiol conjugate (33.5 mg, 0.039 mmol), prepared from Conjugate 1 as described in Example 16, was dissolved in 58 mL of a 9:4 ethanol/0.05 M aqueous phosphate buffer (pH 7.4) mixture, and the solution was shaken in a 37° C. incubator for 9 days. Six 8 mL aliquots were collected at 1-, 2-, 3-, 5-, 7-, and 9-day intervals. Estradiol release was quantified by adding 33 μL of a 0.09 M solution of butylated hydroxytoluene (BHT) in deuterochloroform as an internal standard, then comparing integrals of 1H NMR signals corresponding to the steroid and the internal standard.

[5] = cited from earlier work; for t1/2: carrier drug, as repeated in the examples
[6] = cited from earlier work; for short half life from triacylglycerols (TAG) / following half life from triacylglycerols (TAG): bi-exponential pattern; for short half life from triacylglycerols (TAG): first phase; for following half life from triacylglycerols (TAG): second phase
[7] = Calculation of pharmacokinetic profile of orally delivered 3 1/2 day or 7 day pill; conditions: k 0.42
From the text: Since the release of EE is from a non-constant activity source, i.e., the concentration of the conjugate is continuously decreasing, the release of EE from the conjugate will obey a first order release and thus be proportional to the concentration of conjugate at any time t. These equations have been solved and the final equation describing the release of the EE is given by the equation Mt/M0=1−1/exp(kt), where Mt is the amount of EE released from the conjugate, M0 is the total amount of EE, Mt/M0 is the percent EE released from the conjugate, k is a proportionality constant and t is the time. The constant k was calculated from the data shown in example 17 to be 0.42. […] The pharmacokinetic profiles obtained using pills containing 150 (7 day pill) and 110 (3½ day pill) microgram equivalents of EE are shown in FIG. 1A and FIG. 1B.
As was shown in Example 18, the release from the EE conjugate is governed by the equation Mt/M0=1−1/exp(kt). The value of k was 0.42 as determined from the data of example 17. As discussed in the detailed description of illustrative embodiments, the release can be controlled by many different factors. To obtain half the release rate of EE as compared with that of conjugate of example 17, a value of k=0.22 was used. Using k=0.22 and the pharmacokinetic parameters shown in Example 18, the graphs shown in FIG. 2A and FIG. 2B were obtained. […]

[8] = Hydrolysis of ethinyl estradiol (EE) from conjugate 1; format: physicochemical; conditions: for Ethinyl Estradiol Released (%): 2:1 ethanol/0.05 M phosphate buffer pH 7.4, 37° C.
Procedure: Estradiol conjugate 1 (23.0 mg, 0.027 mmol) was dissolved in 48 mL of a 2:1 ethanol/0.05 M aqueous phosphate buffer (pH 7.4) mixture, and the solution was shaken in a 37° C. incubator for 6 days. Estradiol release was determined by integration of ^1H NMR signals obtained from three 8.5 mL aliquots, which were collected at 2-, 3-, and 6-day intervals.

[9] = carotenoids, J. of Nutrition 2001, 131, 2096
[10] = Table 1, alcohol moiety, 60% acetone, temperature 1
[11] = Table 2, acid moiety, water, temperature 24.7
[12] = The Pharmacological Basis of Therapeutics 10th ed., Physicians Desk Reference 58th Ed.
[13] = Table 1, alcohol moiety, 70% acetone, temperature 24.7
[14] = Physicians Desk Reference p. 3372, 57 ed., 2003
[15] = Table 2, acid moiety, 70% acetone, temperature 24.7
[16] = Table 1, alcohol moiety, 60% acetone, temperature 25

For `CC1=C(/C=C/C(C)=C/C=C/C(C)=C/C=C/C=C(C)/C=C/C=C(C)/C=C/C2=C(C)CCCC2(C)C)C(C)(C)CCC1` [beta carotene], the half life [1, 9] is given as 888 h.
For `CC(=O)Oc1ccc([N+](=O)[O-])cc1`, the kOH [2, 10] is listed as 2.2 M⁻¹ s⁻¹.
In the case of `CCOC(=O)CCl` [ClCH2COOC2H5], the kOH ([2]; Table 2, acid moiety, Water, μ = 0.2, temperature 24.7) is given as 33.2 M⁻¹ s⁻¹.
In the case of `CCOC(=O)C[N+](C)(C)C` [(CH3)3N^+CH2COOC2H5], the kOH [2, 11] is listed as 98.0 M⁻¹ s⁻¹.
For `C#C[C@]1(O)CC[C@H]2[C@@H]3CCC4=CC(=O)CC[C@@H]4[C@H]3CC[C@@]21CC` [levonorgestrel], the plasma concentrations ([3]; ovulation suppression use) is given as “about 1 microgram per ml”.
In the case of `C#C[C@]1(O)CC[C@H]2[C@@H]3CCc4cc(OC(=O)CCC(=O)OC(c5cc(C(F)(F)F)nc6c(C(F)(F)F)cccc56)C5CCCCN5)ccc4[C@H]3CC[C@@]21C` (stereo partly drawn) [Conjugate of Example 16], the “rate of hydrolysis compared with Conjugate 1” value [4] is reported as “slower than that of Conjugate 1”, the “Ethinyl Estradiol Released (%)” value ([4]; Day 1) is reported as 30% and the “Ethinyl Estradiol Released (%)” value ([4]; Day 2) is reported as 50%. For the same compound, the “Ethinyl Estradiol Released (%)” value ([4]; Day 3) was 63%, the “Ethinyl Estradiol Released (%)” value ([4]; Day 5) was 77% and the “Ethinyl Estradiol Released (%)” value ([4]; Day 7) was 88%. The “Ethinyl Estradiol Released (%)” value ([4]; Day 9) was 98%.
For Gold sodium thiomalate, the half life [5, 12] is listed as 600 h.
For `CC(=O)OC(C)(C)C` [CH3COOC(CH3)3], the kOH [2, 13] is listed as 0.00027 M⁻¹ s⁻¹.
For `CC/C=C\C/C=C\C/C=C\C/C=C\C/C=C\CCCC(=O)O` [EPA, eicosapentaenoic acid], the “mean half life in cholesteryl esters (CE)” value ([6]; Br. J. Nutr. 1999) is listed as 78.5 h, the “short half life from triacylglycerols (TAG)” value [6] is listed as “less than a day” and the “following half life from triacylglycerols (TAG)” value [6] is listed as “several days”.
For `CC1=C[C@H](O)CC(C)(C)[C@H]1/C=C/C(C)=C/C=C/C(C)=C/C=C/C=C(C)/C=C/C=C(C)/C=C/C1=C(C)C[C@@H](O)CC1(C)C` [lutein], the half life [1, 9] is listed as 1820 h.
In the case of `C#C[C@]1(O)CC[C@H]2[C@@H]3CCc4cc(O)ccc4[C@H]3CC[C@@]21C` [ethinyl estradiol], the CL/F [3, 14] is given as 8.1 mL/min/kg and the half life [3, 14] is given as 18.7 h.
For `CNCCC=C1c2ccccc2CCc2ccccc21` [Nortriptyline], the half life [5, 12] is given as 31 h.
In the case of `O=c1[nH]c2ccccc2n1C1CCN(CCCC(c2ccc(F)cc2)c2ccc(F)cc2)CC1` [Pimozide], the half life [5, 12] is listed as 111 h.
In the case of `CCOC(=O)C(C)(C)C` [(CH3)3CCOOC2H5], the kOH [2, 15] is given as 0.00022 M⁻¹ s⁻¹.
In the case of `CNCCC(Oc1ccc(C(F)(F)F)cc1)c1ccccc1` (stereo not drawn) [Fluoxetine], the half life [5, 12] is given as 53 h and the t1/2 [5] is given as 53 h.
In the case of `CC(=O)Oc1cccc(C)c1`, the kOH [2, 10] is given as 0.09 M⁻¹ s⁻¹.
For `CCOC(=O)CSC` [CH3SCH2COOC2H5], the kOH [2, 11] is given as 0.92 M⁻¹ s⁻¹.
With `C#C[C@]1(O)CC[C@H]2[C@@H]3CCc4cc(OC(=O)CCC(=O)OC(c5cc(C(F)(F)F)nc6c(C(F)(F)F)cccc56)C5CCCCN5C(=O)OC(C)(C)C)ccc4[C@H]3CC[C@@]21C` (stereo partly drawn) [conjugate 1] the “peak to valley ratio” value ([7]; 1 pill every 7 days, 150 microgram equivalents of EE) was 5.1, the “peak to valley ratio (Css.max to Css.min)” value ([7]; pill once every 3½ days, 110 microgram equivalents of EE) was “less than two” and the “period over which ethinyl estradiol is released” value ([8]; 2:1 ethanol/phosphate buffer pH 7.4, 37° C.) was “over a several day period”. The “Ethinyl Estradiol Released (%)” value ([8]; Day 2) was 57%, the “Ethinyl Estradiol Released (%)” value ([8]; Day 3) was 67% and the “Ethinyl Estradiol Released (%)” value ([8]; Day 6) was 100%. The “proportionality constant k of first order release Mt/M0=1−1/exp(kt)” value ([8]; calculated from the data of example 17) was 0.42.
For Infliximab, the half life ([5]; in vivo) is given as 228 h.
In the case of `CCCCC/C=C\C/C=C\CCCCCCCC(=O)O` [linoleic acid], the t1/2 ([6]; essential fatty acids as drug carriers) is listed as 24 h.
In the case of `COC(C)=O` [CH3COOCH3], the kOH [2, 13] is given as 0.108 M⁻¹ s⁻¹.
For `CC(=O)OC[C@H]1O[C@@H]([S-])[C@H](OC(C)=O)[C@@H](OC(C)=O)[C@@H]1OC(C)=O.CCP(CC)CC.[Au+]` [Auranofin], the half life ([5]; in vivo) is listed as 408 to 600 h.
For `CC1=C(/C=C/C(C)=C/C=C/C(C)=C/C=C/C=C(C)/C=C/C=C(C)/C=C/C2=C(C)C[C@@H](O)CC2(C)C)C(C)(C)CCC1` [beta cryptoxanthin], the half life [1, 9] is listed as 936 h.
In the case of `CCOC(=O)C(CC)CC` [(C2H5)2CHCOOC2H5], the kOH [2, 15] is listed as 0.000083 M⁻¹ s⁻¹.
For `COc1ccc2cc(CCC(C)=O)ccc2c1` [Nabumetone], the half life [5, 12] is listed as 23 h.
For `CCN(CCO)CCCC(C)Nc1ccnc2cc(Cl)ccc12` (stereo not drawn) [Hydroxychloroquine], the half life [5, 12] is given as 1220 h.
For `CC1=C(/C=C/C(C)=C/C=C/C(C)=C/C=C/C=C(C)/C=C/C=C(C)/C=C/C2=C(C)CC(O)CC2(C)C)C(C)(C)CC(O)C1` (stereo not drawn) [zeaxanthin], the half life [1, 9] is given as 912 h.
In the case of `CC/C=C\C/C=C\C/C=C\C/C=C\C/C=C\C/C=C\CCC(=O)O` [DHA, docosahexaenoic acid], the “short half life from triacylglycerols (TAG)” value [6] is listed as “less than a day” and the “following half life from triacylglycerols (TAG)” value [6] is listed as “several days”.
For `CO[C@H]1C[C@@H]2CC[C@@H](C)[C@@](O)(O2)C(=O)C(=O)N2CCCC[C@H]2C(=O)O[C@H]([C@H](C)C[C@@H]2CC[C@@H](O)[C@H](OC)C2)CC(=O)[C@H](C)/C=C(\C)[C@@H](O)[C@@H](OC)C(=O)[C@H](C)C[C@H](C)/C=C/C=C/C=C/1C` [Sirolimus], the half life [5, 12] is given as 62 h and the t1/2 [5] is given as 62 h.
In the case of `CCCC(=O)OCC` [nC3H7COOC2H5], the kOH [2, 15] is listed as 0.088 M⁻¹ s⁻¹.
In the case of `CC(=O)OCc1ccc([N+](=O)[O-])cc1`, the kOH [2, 16] is listed as 0.269 M⁻¹ s⁻¹.
In the case of `CNCCCC1c2ccccc2C=Cc2ccccc21` [Protriptyline], the half life [5, 12] is listed as 78 h and the t1/2 [5] is listed as 76 h.
In the case of `CCOC(C)=O` [CH3COOC2H5], the kOH [2, 13] is listed as 0.047 M⁻¹ s⁻¹ and the kOH [2, 15] is listed as 0.047 M⁻¹ s⁻¹.
In the case of `OC(c1cc(C(F)(F)F)nc2c(C(F)(F)F)cccc12)C1CCCCN1` (stereo not drawn) [Mefloquine], the half life [5, 12] is listed as 480 ± 96 h.
In the case of `CC(C)=CCC\C(C)=C/C=C/C(C)=C/C=C/C(C)=C/C=C/C=C(C)/C=C/C=C(C)/C=C/C=C(\C)CCC=C(C)C` [5-Z lycopene], the half life ([1]; in vivo) is listed as 220 h.
For `CN(C)CCOc1ccc(/C(=C(/CCCl)c2ccccc2)c2ccccc2)cc1` [Toremifene], the half life [5, 12] is given as 148 h.
In the case of `CCC1(c2ccccc2)C(=O)NC(=O)NC1=O` [Phenobarbital], the half life [5, 12] is given as 99 h.
For `CCCOC(C)=O` [CH3COO(CH2)2CH3], the kOH [2, 13] is given as 0.027 M⁻¹ s⁻¹.
For `CCOC(=O)C[S+](C)[O-]` (stereo not drawn) [CH3SOCH2COOC2H5], the kOH [2, 11] is given as 4.20 M⁻¹ s⁻¹.
In the case of `CCOC(=O)CN` [H3N^+CH2COOC2H5], the kOH [2, 11] is listed as 60.5 M⁻¹ s⁻¹.
In the case of `CC(C)=CCC/C(C)=C/C=C/C(C)=C/C=C/C(C)=C/C=C/C=C(C)/C=C/C=C(C)/C=C/C=C(\C)CCC=C(C)C` [E lycopene], the half life ([1]; in vivo) is given as 120 h.
In the case of `CC(C)=CCC/C(C)=C/C=C/C(C)=C/C=C/C(C)=C/C=C/C=C(C)/C=C/C=C(C)/C=C/C=C(\C)CCC=C(C)C` [lycopene], the half life [1, 9] is listed as 624 h.
For Ivermectin, the half life [5, 12] is given as 57 h.
In the case of `CC(=O)OC(C)C` [CH3COOCH(CH3)2], the kOH [2, 13] is given as 0.007 M⁻¹ s⁻¹.
For `CC(=O)Oc1ccccc1` [CH3COOC6H5], the kOH [2, 16] is given as 0.537 M⁻¹ s⁻¹.
For `CC1=CCCC(C)(C)[C@H]1/C=C/C(C)=C/C=C/C(C)=C/C=C/C=C(C)/C=C/C=C(C)/C=C/C1=C(C)CCCC1(C)C` [alpha carotene], the half life [1, 9] is listed as 1080 h.
